Data taken from PMC12348844, “Anti-Trypanosoma cruzi Potential of New Pyrazole-Imidazoline Derivatives” (Molecules, 2025).

Tests used:
Assay type in all cases: cell-based
[1] = system: T. cruzi Dm28c-Luc trypomastigotes; assay: Anti-T. cruzi in vitro assay, trypomastigotes (luminescence); conditions: Trypanosoma cruzi, 24 h, mean ± SD
Procedure: The genetically modified Trypanosoma cruzi, clone Dm28c (TcI), expressing luciferase (Dm28c-Luc), was kindly provided by Dr. Cristina Henriques from Oswaldo Cruz Institute—Fiocruz. The parasites were maintained using Vero cell cultures in RPMI 1640 medium enriched with 10% FBS. At 4 days post-infection (dpi), the trypomastigotes released into the culture supernatant were harvested, subjected to centrifugation at 800× g for 20 min at 4 °C, and quantified with a Neubauer chamber. The isolated trypomastigotes were subsequently used for phenotypic screening, drug efficacy assessments employing a 3D cardiac model, washout experiments to evaluate reversibility, drug combination studies, and enzymatic assays.
Drug susceptibility assays were performed on T. cruzi Dm28c-Luc, a genetically engineered parasite expressing luciferase. The drug screening used both trypomastigotes and intracellular amastigotes. Trypomastigotes (1 × 10^6 parasites/well) were added to white 96-well plates with clear bottoms. […] The luminescence was measured using a Glomax Multi-Detection plate reader (Promega Corporation, Madison, WI, USA).

[2] = system: T. cruzi Dm28c-Luc in cardiac spheroids; assay: Efficacy in T. cruzi-infected 3D cardiac microtissues; conditions: Trypanosoma cruzi, 72 h, read-out: inhibition of parasite load in infected cardiac spheroids
Procedure: Three-dimensional (3D) heart muscle cell cultures were obtained as previously described. Briefly, heart muscle cells were isolated from 18-day-old Swiss Webster mouse fetuses. The ventricular tissue was fragmented and enzymatically dissociated using a trypsin and collagenase type II solution. The isolated cells were seeded at a density of 2.5 × 10^4 cells/well in 96-well U-bottom microplates previously coated with 1% agarose. The cells were cultured in Dulbecco’s modified Eagle Medium (DMEM) enriched with 10% FBS, 2.5 mM CaCl2, 1 mM L-glutamine, 2% chicken embryo extract, and a cocktail of antibiotics. The cultures were maintained at 37 °C in a 5% CO2 atmosphere. […]
The efficacy of the promising candidate was assessed using cardiac 3D microtissues. […] At the end of the experiment, luminescence was measured using a Glomax Multi-Detection plate reader (Promega Corporation, Madison, WI, USA) after adding luciferin solution, with results reported in arbitrary luminescence units (A.L.U). To enhance reliability and provide qualitative, orthogonal validation of these luminescence readings, we employed confocal fluorescence microscopy using 4′,6′-diamidino-2-phenylindole (DAPI) staining. […] Imaging was performed using a Zeiss LSM710 confocal fluorescence microscope (Carl Zeiss, Baden–Württemberg, Germany). […]

[3] = system: intracellular amastigotes of T. cruzi; assay: Drug combination with Bz, fixed-ratio isobologram, intracellular amastigotes; conditions: Trypanosoma cruzi; proportion 1k:Bz 5:0, 72 h; read-out: IC50 (Mean ± DP) in combination assay
Procedure: The isobologram approach assessed the interaction between Bz and the promising candidate in intracellular amastigotes of T. cruzi. Vero cell cultures infected with T. cruzi (Dm28c-Luc) were treated for 72 h with various concentrations of combinations of Bz and the promising candidate, specifically at ratios of 5:0; 4:1; 3:2; 2:3; 1:4 and 0:5. The maximum concentration of each compound was established based on their IC50 values, ensuring both reached the fourth dilution in the serial dilution setup (1:3), culminating in a total of seven dilutions. After 72 h of treatment, parasite viability was measured by luminescence in a Glomax Multi-Detection plate reader (Promega Corporation, Madison, WI, USA) after incubation with luciferin. The IC50 values of each treatment combination were calculated individually, and the fractional inhibitory concentration index (FICI) was derived using the formula FICI = IC50 of the combination/IC50 of the compound alone. The overall FICI (ΣFICI) was calculated by summing the FICIs for both compounds in each combination group, while the average ΣFICI (xΣFICI) represented the overall mean across all combination groups. The xΣFICI values were then employed to classify the interaction as synergistic (xΣFICI ≤ 0.5), additive (0.5 < xΣFICI < 4), or antagonistic (xΣFICI > 4). […]

Question: How did the IC50 [1] turn out when `FC(F)(F)c1ccc(-n2cc(C3=NCCN3)cn2)cc1` [1k, 1-(4-trifluoromethylphenyl)-4-(4,5-dihydro-1H-imidazol-2-yl)-1H-pyrazole] was run?
Answer: 72.2 ± 10.3 µM

Question: And the IC90 [1]?
Answer: > 100 µM

Question: And the inhibition at 28.8 µM ([2]; 28.8 µM)?
Answer: 90%

Question: What about the inhibition at 57.6 µM ([2]; 57.6 µM) of the same molecule?
Answer: 94%

Question: And the IC50 [3]?
Answer: 3.75 ± 0.35 µM
